Laboratory results reported in patent US10004701B2, “Methods and compositions for treating infection” (UNIVERSITY OF ROCHESTER, priority 2012, dated 2018).
Converted amounts (≈) assume the structure as drawn. Like-named read-outs stand apart in the source and are kept apart here.

Assays:
P. aeruginosa = assay: AK assay 384-well format, Prestwick library screening; assay type: cell-based, Pseudomonas aeruginosa; details: Pseudomonas aeruginosa, 3 h; planktonic P. aeruginosa; 50 μM final drug concentration; 384-well; cutoff for positive-scoring molecules 3-fold increase; read-out: AK-based Prestwick Library Screening Results: P. aeruginosa (increase in extracellular AK activity)
Staphylococcus aureus = assay: MIC testing; assay type: cell-based
[1] = system: Klebsiella pneumoniae cKP1; assay: MIC testing; assay type: cell-based; details: Klebsiella pneumoniae cKP1; read-out: MIC
[2] = system: S. aureus strain USA300-0114; assay: AK assay 384-well format, Prestwick library screening; assay type: cell-based, Staphylococcus aureus; details: Staphylococcus aureus, USA300, 3 h; planktonic S. aureus; 50 μM final drug concentration; 384-well; cutoff for positive-scoring molecules 3-fold increase; read-out: AK-based Prestwick Library Screening Results: S. aureus (increase in extracellular AK activity)
[3] = system: Enterobacter cloacae PMD1001; assay: MIC testing; assay type: cell-based
E. cloacae = assay: AK assay 384-well format, Prestwick library screening; assay type: cell-based, Enterobacter cloacae; details: Enterobacter cloacae, 3 h; planktonic E. cloacae; 50 μM final drug concentration; 384-well; cutoff for positive-scoring molecules 3-fold increase; read-out: AK-based Prestwick Library Screening Results: E. cloacae (increase in extracellular AK activity)
[4] = system: Acinetobacter baumannii 98-37-09; assay: MIC testing; assay type: cell-based; details: 983709; Acinetobacter baumannii 98-37-09; read-out: MIC
E. coli = assay: AK assay 384-well format, Prestwick library screening; assay type: cell-based, Escherichia coli; details: Escherichia coli, 3 h; planktonic E. coli; 50 μM final drug concentration; 384-well; cutoff for positive-scoring molecules 3-fold increase; read-out: AK-based Prestwick Library Screening Results: E. coli (increase in extracellular AK activity)
E. faecium = assay: as above; assay type: cell-based, Enterococcus faecium; details: Enterococcus faecium, 3 h; planktonic E. faecium; 50 μM final drug concentration; 384-well; cutoff for positive-scoring molecules 3-fold increase; read-out: AK-based Prestwick Library Screening Results: E. faecium (increase in extracellular AK activity)
[5] = system: Pseudomonas aeruginosa PA01; assay: AK assay 96-well format; assay type: cell-based
Escherichia coli 8295 = assay: MIC testing; assay type: cell-based
[6] = system: E. coli and each of the ESKAPE pathogens; assay: AK-based Prestwick library screening, summary across organisms; assay type: cell-based; details: 50 μM, cutoff 3-fold increase in AK
[7] = system: Pseudomonas aeruginosa PA01; assay: MIC testing; assay type: cell-based; details: read-out: MIC
K. pneumoniae = assay: AK assay 384-well format, Prestwick library screening; assay type: cell-based, Klebsiella pneumoniae; details: Klebsiella pneumoniae, 3 h; planktonic K. pneumoniae; 50 μM final drug concentration; 384-well; cutoff for positive-scoring molecules 3-fold increase; read-out: AK-based Prestwick Library Screening Results: K. pneumoniae (increase in extracellular AK activity)
[8] = system: A. baumannii strain 98-37-09; assay: as above; assay type: cell-based, Acinetobacter baumannii; details: Acinetobacter baumannii, 983709, 3 h; planktonic A. baumannii; 50 μM final drug concentration; 384-well; cutoff for positive-scoring molecules 3-fold increase; read-out: AK-based Prestwick Library Screening Results: A. baumannii (increase in extracellular AK activity)
[9] = system: Enterococcus faecium 824-05; assay: MIC testing; assay type: cell-based; details: 82405; Enterococcus faecium 824-05; read-out: MIC

Structure (SMILES): CC[C@H]1OC(=O)[C@H](C)[C@@H](O[C@H]2C[C@@](C)(OC)[C@@H](O)[C@H](C)O2)[C@H](C)[C@@H](O[C@@H]2O[C@H](C)C[C@H](N(C)C)[C@H]2O)[C@](C)(O)C[C@@H](C)C(=O)[C@H](C)[C@@H](O)[C@]1(C)O [Erythromycin, erythromycin]
- fold induction at 50 µM (P. aeruginosa): 0.7
- MIC (Staphylococcus aureus; Staphylococcus aureus): 2 µg/mL (≈ 2.73 µM)
- MIC (Staphylococcus aureus; Staphylococcus aureus USA300-0114, read-out: MIC): 64 µg/mL (≈ 87.2 µM)
- MIC [1]: > 256 µg/mL
- fold induction at 50 µM [2]: 8.2
- MIC [3]: 256 µg/mL (≈ 349 µM)
- fold induction at 50 µM (E. cloacae): 1.6
- MIC [4]: 16 µg/mL (≈ 21.8 µM)
- fold induction at 50 µM (E. coli): 1
- fold induction at 50 µM (E. faecium): 1
- Fold increase in AK signal ([5]; treatment 0.5×MIC): 3 fold
- Fold increase in AK signal ([5]; treatment 1.0×MIC): 1 fold
- MIC (Escherichia coli 8295): 256 µg/mL (≈ 349 µM)
- activity in AK Prestwick screen, all species tested [6]: not identified as being active
- MIC [7]: 32 µg/mL (≈ 43.6 µM)
- fold induction at 50 µM (K. pneumoniae): 1
- fold induction at 50 µM [8]: 1.5
- MIC [9]: > 256 µg/mL
